Measured values reported in US10478421B1, “Sortilin binding compounds, formulations, and uses thereof” (University of Florida, priority 2016, dated 2019).

Molecular target: T1, human sortilin (Homo sapiens, UniProt Q99523)
T1 sequence (Q99523 78-831): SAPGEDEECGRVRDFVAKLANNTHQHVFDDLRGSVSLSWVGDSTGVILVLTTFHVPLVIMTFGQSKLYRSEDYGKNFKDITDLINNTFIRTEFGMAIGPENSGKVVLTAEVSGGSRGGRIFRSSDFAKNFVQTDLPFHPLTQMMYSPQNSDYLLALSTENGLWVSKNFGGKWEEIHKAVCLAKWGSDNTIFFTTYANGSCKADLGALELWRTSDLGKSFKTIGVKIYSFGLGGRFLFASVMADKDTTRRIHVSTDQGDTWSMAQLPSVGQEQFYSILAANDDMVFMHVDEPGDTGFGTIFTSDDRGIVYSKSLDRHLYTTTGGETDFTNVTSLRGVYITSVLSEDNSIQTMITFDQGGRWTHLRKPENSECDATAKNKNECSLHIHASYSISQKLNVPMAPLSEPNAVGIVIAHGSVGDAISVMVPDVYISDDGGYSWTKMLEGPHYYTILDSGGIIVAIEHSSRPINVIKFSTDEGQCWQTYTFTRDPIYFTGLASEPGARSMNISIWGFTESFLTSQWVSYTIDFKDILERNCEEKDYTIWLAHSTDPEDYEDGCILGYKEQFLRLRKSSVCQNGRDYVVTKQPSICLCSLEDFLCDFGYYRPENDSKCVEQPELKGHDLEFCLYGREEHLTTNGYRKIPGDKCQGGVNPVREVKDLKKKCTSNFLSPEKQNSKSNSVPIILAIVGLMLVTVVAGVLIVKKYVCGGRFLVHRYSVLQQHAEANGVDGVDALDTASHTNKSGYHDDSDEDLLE
Assay: Thermophoresis binding to human sortilin
Procedure: Due to inherent fluorescence of 541 small molecule, thermophoresis was performed in two different buffer conditions (PBS n=3 and MST n=2) and at two sets of concentration ranges. […] SPR indicates a high and low affinity binding site of cpd984 to human sortilin of hsortilin with Kd of about 200 μM and about 20 nM.

With `CN1CCC[C@H]1C(=O)Nc1cccc(NC(=O)CCc2ccccc2)c1` [cpd984, (2S)-1-methyl-N-{3-[(3-phenylpropanoyl)-amino]phenyl} pyrrolidine-2-carboxamide] the Kd (high affinity binding range) was 0.007 µM and the Kd (low affinity binding range) was 100 to 300 µM.
